{"source": "patent US20210386709A1", "about": "“COMPOSITIONS AND METHODS FOR SUPPRESSING MSUT2” (United States Government As Represented By The Department …, priority 2020, published 2021)", "molecular_target": "T1, MSUT2 ZF (Homo sapiens, UniProt Q6PJT7)", "T1 construct": "Targeted construct consisted of the c-terminal end (dark blue and amino acids 601-736) of MSUT2; made in house; host or cells: E. coli BL21 (DE3)", "T1 sequence (Q6PJT7 601-736)": "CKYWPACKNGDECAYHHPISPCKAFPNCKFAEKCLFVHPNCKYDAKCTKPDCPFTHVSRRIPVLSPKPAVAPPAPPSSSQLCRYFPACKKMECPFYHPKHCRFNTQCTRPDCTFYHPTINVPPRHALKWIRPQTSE", "experiment": "Fluorescence polarization assay of FAM-poly(A) RNA:MSUT2 ZF binding", "conditions": "by FP assay; read-out: Ki for MSUT2 by FP assay", "method": "Fluorescence Polarization Assay. […] 2 μL of compound was transferred for a final concentration of 10 μM. […] Fluorescence polarization was calculated by first subtracting background from a buffer-only control well and then using the equation\nResults and Discussion. A high-throughput fluorescence polarization assay for inhibition of poly(A):MSUT2 RNA interaction. […] In order to screen potential inhibitors of MSUT2 RBP and RNA by FP, fluorescent FAM (fluorescein amidite)-labeled poly(A)15 RNA (FAM-RNA) and recombinant MSUT2 ZF (zinc finger) protein expressing constructs were generated (FIG. 7a). […] Inhibition of the interaction results in unbound FAM-RNA tumbling at a relatively rapid rate and emitting non-polarized light (FIG. 7b).\nTo determine the concentrations of both MSUT2 ZF protein and FAM-RNA probe useful in the methods described herein, a two dimensional titration of protein and RNA concentrations in 96-well format was performed. […] Next, the binding constant between MSUT2 ZF and FAM-RNA was determined by holding FAM-RNA constant at 10 nM while increasing MSUT2 ZF concentration.\nIdentification and validation of MSUT2 inhibitory compounds from NIHCC library. […] IC50 of each of the previous 8 compounds was determined for PABPN1 using fluorescence polarization (FIG. 11), and a specificity ratio determined (Table 3). An Alpha Screen (AS) assay was developed as an orthogonal screen. Briefly, in this screen, biotinylated RNA binds streptavidin-coated donor beads, while GST-MSUT2 ZF binds glutathione-coated acceptor beads. When donor beads and acceptor beads are brought within close proximity of one another, laser excitation leads to fluorophore emission of the acceptor bead via excited singlet oxygen activating chemiluminescers in the acceptor beads. […] Toxicity of these compounds in a HEK cell model was determined using a standard Promega Cell Titer Glo assay.\nFluorescence Polarization Assay. […] of stock compound was transferred yielding 10 μM final concentration. […] Fluorescence polarization was calculated by first subtracting background from a buffer-only control well and then using the equation", "data": [{"molecule": "O=c1c2ccccc2[se]n1-c1ccccc1", "note": "[Ebselen]", "values": [{"measurement": "Ki", "result": 1.02, "unit": "µM"}]}]}
